No end group written: not given here.
Columns and labels:
[1] = system: B16 murine melanoma cells; experiment: Cell number after peptide treatment, B16; format: cell-based; settings: 6 days, 0 μM to 50 μM; stock without BSA
Experimental: (§1) Replicate cultures were exposed to the peptides the for 6 days at the indicated concentrations. Stock solutions of the peptides were prepared in buffer without added bovine serum albumin (BSA).

MDA-MB 231 cells = experiment: Colony forming activity on culture plates, MDA-MB 231; format: cell-based; settings: 6 days; doses 0.05, 0.5 and 5 μM
Experimental: (§2) T98G (FIG. 21A), MDA-MB 231 (FIG. 21B), and HCT116 (FIG. 21C) cells were exposed to CP-DN-CEBPB and CP-DN-CEBPD for 6 days at doses of 0.05 μM 0.5 μM, and 5 μM while growing in soft agar. Growth was inhibited by does as low as 0.5 μM. T98G (FIG. 21D), MDA-MB 231 (FIG. 21E), and HCT116 (FIG. 21F) cells were exposed to CP-DN-CEBPB and CP-DN-CEBPD for 6 days at doses of 0.05 μM 0.5 μM, and 5 μM while growing on culture plates. Growth was inhibited by does as low as 0.5 μM.

[2] = system: HIEC-6 non-cancer cell lines; experiment: PI-Annexin staining and flow cytometry, HIEC-6; format: cell-based, human; settings: 20 μM, 3 days
Experimental: MDA-MB-231, MCF7, HCT116 and T98G cancer cell lines and HIEC-6 non-cancer cell lines were treated for 3 days with 20 μM CP-dn-CEBPB and CP-dn-CEBPD peptides from stock solutions prepared without additives, followed by PI-Annexin staining and flow cytometry. Numbers in upper and lower quadrants indicate % of cells in early (lower) or late (upper) apoptotic phase.

T98G cells [3] = experiment: Scratch migration assay, T98G; format: cell-based; settings: 20 hours, 20 μM or 40 μM
Experimental: Monolayers of MDA-MB 231 or T98G cells were subjected to formation of a scratch at 0 time and cultured for 20 hours in 20 μM or 40 μM CP-DN-CEBPB and CP-DN-CEBPD. Multiple images taken at 0 time and after 20 hours were analyzed for gap width of the scratches into which cells migrated or not. Example images for T98G are found in FIG. 22A, with compiled data for the T98G samples in FIG. 22B. Example images for MDA-MB 231 are found in FIG. 22C, with compiled data for the MDA-MB 231 samples in FIG. 22D.

A375 cells = experiment: A375 subcutaneous tumors, 20 mg/kg survival study; format: in vivo, NCR nude mice; settings: 20 mg/kg intraperitoneally
Experimental: A375 cells were subcutaneously implanted in the flanks of NCR nude mice. Once tumors had formed, the animals were treated intraperitoneally with 20 mg/kg of CP-dn-CEBPD or vehicle as indicated in the schema shown in FIG. 39A. Animal weight was monitored (FIG. 39B). Tumor sizes were measured and volumes calculated on each day of injection. […] FIG. 39D compares calculated individual and mean tumor volumes for vehicle and CP-dn-CEBPD treated animals on day 28.

[4] = system: MDA-MB-231 breast cancer cells; experiment: Cell number after peptide treatment, MDA-MB-231; format: cell-based; settings: 6 days, 0 μM to 50 μM; stock without BSA
Experimental: as §1
(§3) Replicate cultures of HCT116, MDA-MB 231, MCF7, and T98G cells were exposed to a 50/50 by concentration mixture of CP-DN-CEBPB and CP-DN-CEBPD for 6 days at doses of 0 μM to 50 μM. Stock solutions of the peptides were prepared in buffer without added bovine serum albumin (BSA).
(§4) Replicate cultures of T98G, HCT116, MDA-MB 231, and MCF7 cells were exposed to CP-DN-CEBPB, CP-DN-CEBPD, or a CP-DN-CEBPD in which heptad repeat leucine residues were mutated to glycine residues for 6 days at doses of 0 μM to 50 μM. Stock solutions of the peptides were prepared in buffer without added bovine serum albumin (BSA).

T98G cells [5] = experiment: Colony forming activity in soft agar, T98G; format: cell-based; settings: 6 days; doses 0.05, 0.5 and 5 μM
Experimental: as §2

[6] = system: U251 gliblastoma multiforme cells; experiment: Cell number after peptide treatment, U251; format: cell-based; settings: 6 days, 0 μM to 50 μM; stock without BSA
Experimental: as §1

IL8 = experiment: qPCR for IL8 mRNA; format: cell-based; settings: 20 μM, 3 days; T98G, MDA-MB-231, MCF7, A375 and HCT116 cells
Experimental: (§5) T98G, MDA-MB-231, MCF7, A375, and HCT116 cells were treated with or without 20 μM CP-dn-CEBPB or CP-dn-CEBPD for 3 days and then assessed by qPCR for relative levels of IL6 (FIG. 32A, T98G; FIG. 32B, MDA-MB-231; FIG. 32C, MCF7; FIG. 32D, A375; FIG. 32E, HCT116) and IL8 mRNA (FIG. 32F, T98G; FIG. 32G, MDA-MB-231; FIG. 32H, MCF7; FIG. 32I, A375; FIG. 32J, HCT116).

[7] = system: HCT116 colon cancer cells; experiment: Cell number after peptide treatment, HCT116; format: cell-based; settings: 6 days, 0 μM to 50 μM; stock without BSA
Experimental: as §1, §3, §4

IL6 = experiment: qPCR for IL6 mRNA; format: cell-based; settings: 20 μM, 3 days; T98G, MDA-MB-231, MCF7, A375 and HCT116 cells
Experimental: as §5

B16-F10 cells = experiment: B16-F10 subcutaneous tumors; format: in vivo, C56BL/6 mice; settings: 20 or 50 mg/kg intraperitoneally
Experimental: B16-F10 cells were subcutaneously implanted in the flanks of C56BL/6 mice. After the tumors were established, the mice were treated intraperitoneally with 20 or 50 mg/kg of CP-dn-CEBPD or vehicle as indicated in the schema shown in FIG. 38A. Animal weight was monitored (FIG. 38B). […] FIG. 38D compares calculated individual and mean tumor volumes for each group of animals on day 12.

normal human astrocytes = experiment: Survival after peptide treatment, astrocytes; format: cell-based; settings: 6 days, 0 μM to 50 μM; stock without BSA
Experimental: Replicate cultures of HIEC-6 non-cancer human intestinal epithelial cells, MCF10A non-cancer human breast epithelial cells, or normal human astrocytes were exposed to CP-DN-CEBPB or CP-DN-CEBPD, for 6 days at doses of 0 μM to 50 μM. […] Stock solutions of the peptides were prepared in buffer without added bovine serum albumin (BSA).

[8] = system: MDA-MB-468 breast cancer cells; experiment: Cell number after peptide treatment, MDA-MB-468; format: cell-based, human; settings: 6 days, 0 μM to 50 μM; stock without BSA
Experimental: Replicate cultures of MDA-MB-468 breast cancer cells, A549 lung cancer cells and 293T transformed embryonic kidney cells were exposed to CP-DN-CEBPB or CP-DN-CEBPD, for 6 days at doses of 0 μM to 50 μM. […] Stock solutions of the peptides were prepared in buffer without added bovine serum albumin (BSA).

Sequence | growth and survival of B16 cells [1] | lowest dose at which growth was inhibited, culture plates (MDA-MB 231 cells) | apoptotic death (early or late apoptotic phase) [2] | cell migration into scratch (gap width) (T98G cells [3]) | side effects (animal weight monitored) (A375 cells) | animal survival (A375 cells; endpoint morbid behavior or tumor >1000 mm^3) | tumor growth (calculated tumor volumes) (A375 cells; to day 28) | growth and survival / numbers of MDA-MB-231 cells [4] | lowest dose at which growth was inhibited, soft agar (T98G cells [5]) | growth and survival of U251 cells [6] | relative levels of IL8 mRNA (IL8) | growth and survival / numbers of HCT116 cells [7] | relative levels of IL6 mRNA (IL6) | side effects (animal weight monitored) (B16-F10 cells) | tumor growth (calculated tumor volumes) (B16-F10 cells; to day 12-13) | survival of astrocytes (normal human astrocytes) | number of MDA-MB-468 cells [8]
RQIKIWFQNRRMKWKKLVELSAENEKLHQRVEQLTRDLAGLRQFFK [CP-DN-CEBPD] | decrease in growth and survival | 0.5 µM | not in the control non-caner cell line | able to inhibit migration | no apparent side effects | increased animal survival | suppressed tumor growth | decrease in growth and survival | 0.5 µM | decrease in growth and survival | suppress expression | decrease in growth and survival | suppress expression | no apparent side effects | suppressed tumor growth | neither CP-DN-CEBPB or CP-DN-CEBPD affected survival of astrocyte | dose-dependent decrease in the number
RQIKIWFQNRRMKWKKLETQHKVLELTAENERLQKKVEQLSRELSTLRNLFKQL [CP-DN-CEBPB] | decrease in growth and survival | 0.5 µM | not in the control non-caner cell line | able to inhibit migration | – | – | – | decrease in growth and survival | 0.5 µM | decrease in growth and survival | suppress expression | decrease in growth and survival | suppress expression | – | – | neither CP-DN-CEBPB or CP-DN-CEBPD affected survival of astrocyte | dose-dependent decrease in the number

Source: US12428455B2, “Dominant negative CEBPB and CEBPD proteins and methods of use for decreasing viability of neoplastic cells” (The Trustees of Columbia University in the City of New York, priority 2018, dated 2025)
